Laboratory results taken from US20110183978A1, “Phenylpyri(mi)dinylazoles” (Bayer CropScience AG, priority 2009, published 2011).
Where two headings read alike, the source gives them in different places.

Assays:
[1] = test system: Plasmopara viticola; experiment: Example N: in vivo test on Plasmopara viticola (downy mildew, vine/protective); details: 144 h, vine, protective, assessment 6 days after inoculation, read-out: % Wirkungsgrad
In short: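 Protective test: young vine plants were sprayed with active substance diluted in water from a solvent/alkylaryl polyglycol ether emulsifier concentrate at the stated dosage, then inoculated with P. viticola. Plants were moistened and kept 1 day in an incubation cabin, and assessed 6 days after inoculation.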

[2] = test system: Puccinia recondita; experiment: Example F: in vivo test on Puccinia recondita (wheat brown rust); details: 240 h, wheat plants sprayed 24 hours before inoculation, scored after 10 days, read-out: % Wirkungsgrad
[3] = physchem; details: LogPA (logP of the stated pure compound or, in a mixture, of the main isomer, 1-substituted 3-aryl-1H-pyrazole)
[4] = test system: Phakopsora pachyrhizi; experiment: Example Z: in vivo test on Phakopsora pachyrhizi (soya bean rust/protective); details: soya bean rust, protective, 250 ppm active substance, assessed 11 days after inoculation
[5] = test system: Peronospora parasitica; experiment: Example A: in vivo test on Peronospora parasitica (downy mildew on white cabbage); details: Hyaloperonospora parasitica, 120 h, cabbage plants sprayed 24 hours before inoculation, scored after 5 days, read-out: % Wirkungsgrad
In short: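 Cabbage plants (Eminence) at cotyledon stage sprayed with aqueous compound suspension (acetone/Tween/DMSO, diluted with water), then inoculated 24 h later with P. parasitica spores at 50,000 spores/ml. After 5 days in moist atmosphere at ca. 20 °C, disease scored against untreated sprayed controls.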

[6] = test system: Septoria tritici; experiment: Example R: in vivo test on Septoria tritici (leaf blotch in wheat/protective); details: Zymoseptoria tritici, 504 h, wheat, protective, 1000 ppm active substance, assessed 21 days after inoculation, read-out: % Wirkungsgrad (activity level)
In short: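 Protective test: young wheat plants sprayed with compound in N,N-dimethylacetamide/alkylaryl polyglycol ether emulsifier diluted in water, dried, then inoculated with Septoria tritici spore suspension. Disease assessed 21 days after inoculation.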

[7] = test system: Rhizoctonia solani; experiment: Example W: in vivo test on Rhizoctonia solani (sheath blight in rice/protective); details: 96 h, rice, protective, 250 ppm active substance, assessed 4 days after inoculation, read-out: % Activity level
In short: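 Young rice plants sprayed protectively with compound in acetone/alkylaryl polyglycol ether emulsion diluted in water at stated dosage. Inoculated with R. solani hyphae one day later; disease assessed 4 days post-inoculation.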

[8] = test system: Fusarium graminearum; experiment: whole plant or invertebrate; type: in vivo; details: in Hordeum vulgare, 120 h, read-out: % Wirkungsgrad (activity level)
[9] = test system: Mycosphaerella graminicola; experiment: Example G: in vivo test on Mycosphaerella graminicola (wheat leaf blotch disease); details: Zymoseptoria tritici, wheat plants sprayed 24 hours before inoculation, scored after 21 to 28 days, read-out: % Wirkungsgrad
In short: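 Scipion wheat at first-leaf stage (10 cm) was sprayed with aqueous active-substance suspension, then inoculated 24 hours later with Mycosphaerella graminicola spores (500,000 spores per ml) from 7 day-old culture. Disease was scored after 21 to 28 days against untreated sprayed controls.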

[10] = test system: Sphaerotheca fuliginea; experiment: Example L: in vivo test on Sphaerotheca fuliginea (powdery mildew on cucumber/protective); details: Podosphaera fuliginea, 168 h, cucumber, protective, assessment 7 days after inoculation, read-out: % Wirkungsgrad
In short: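 Young cucumber plants sprayed at stated dosage with compound in DMF/alkylaryl polyglycol ether emulsifier diluted in water; inoculated with S. fuliginea spores one day later. Kept in greenhouse at 70% relative humidity, 23° C; protective activity assessed 7 days after inoculation.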

[11] = test system: Aspergillus parasiticus; experiment: microbe, parasite or virus in culture; type: cell-based; details: 168 h
[12] = test system: Fusarium graminearum; experiment: microbe, parasite or virus in culture; type: cell-based
[13] = 50 μM, 7 days at 20° C., read-out: Inhibition der Aflatoxin produktion bei 50 μM
[14] = read-out: % Inhibition des Pilzwachstums bei 50 μM
[15] = 72 h, read-out: % Inhibition des Pilzwachstums bei 50 μM
[16] = 168 h, read-out: % Inhibition der DON/AcDON produktion bei 50 μM

SMILES	pest or weed control at 100 ppm [1] [%]	pest or weed control at 500 ppm [2] [%]	chromatographic logP [3]	% Activity level [4] [%]	pest or weed control at 500 ppm [5] [%]	pest or weed control at 1000 ppm [6] [%]	pest or weed control at 250 ppm [7] [%]	pest or weed control at 1000 ppm [8] [%]	pest or weed control at 500 ppm [9] [%]	pest or weed control at 500 ppm [10] [%]	inhibition at 50 µM [11, 13] [%]	inhibition at 50 µM [11, 14] [%]	inhibition at 50 µM [12, 15] [%]	inhibition at 50 µM [12, 16] [%]
CC(C)Cn1cc(-c2ccncc2)c(-c2ccc(F)cc2)n1 [Compound 1]	100	89	1.63	91	100	100	100	100	–	–	–	–	–	–
CC(C)C(=O)Nc1cc(-c2cn(C(C)C)nc2-c2ccc(F)cc2)ccn1 [Compound 84]	98	78	2.5	98	100	100	100	100	98	100	100	98	92	99
CCC(=O)Nc1cc(-c2cn(C(C)C)nc2-c2ccc(F)cc2)ccn1 [Compound 85]	94	–	2.15	–	100	100	97	100	–	100	100	98	100	99
CC(C)n1cc(-c2ccnc(NC(=O)C3CC3)c2)c(-c2ccc(F)cc2)n1 [Compound 86]	84	–	2.07	–	100	100	100	100	94	100	100	97	94	98
